Experimental data: article PMC6134108, “Nystatin-like Pseudonocardia polyene B1, a novel disaccharide-containing antifungal heptaene antibiotic” (Scientific Reports, 2018)
Converted amounts (≈) assume the structure as drawn. Like-named read-outs stand apart in the source and are kept apart here.

Columns and labels:
[1] = test system: Cryptococcus humicola ATCC9949; assay: MIC assay (CLSI M27-A3 microbroth); type: cell-based; settings: Vanrija humicola; Cryptococcus humicola ATCC9949; read-out: Antifungal activity (MIC)
Experimental: (§1) For the minimum inhibitory concentration (MIC) assay, strains for testing were grown on YPD agar for 24 hours, and subcultured to YPD broth medium. Whole strains were incubated for 18 hours at 35 °C by shaking incubator. Grown organisms were diluted with fresh RPMI 1640 medium to appropriate concentration, 5 × 10^4 CFU/ml. Cultures were inoculated to 96-well plates containing antifungal medium. All compounds were dissolved using Dimethyl Sulfoxide (DMSO) and diluted broth media. Fungal diluted solution and antifungal medium were mixed at 1:1 ratio so total 200 ul mixed medium was made. Whole experiment plates were incubated for 24 hours at 37 °C. […] The MICs were calculated in duplicate using the Clinical and Laboratory Standards Institute M27-A3 microbroth methodology. Hemolysis experiments and the 3-(4,5-dimethylthiazol-2-yl)-5-(3-carboxymethoxyphenyl)-2-(4-sulfophenyl)-2H-tetrazolium (MTS) cell proliferation colorimetric assay were performed following known procedures[12],[27],[29].

[2] = test system: C. albicans SC5314; assay: MIC assay (CLSI M27-A3 microbroth); type: cell-based; settings: Candida albicans; C. albicans SC5314; no visible growth; read-out: Antifungal activity (MIC)
Experimental: as §1

[3] = test system: Saccharomyces cerevisiae ATCC9035; assay: MIC assay (CLSI M27-A3 microbroth); type: cell-based; settings: Saccharomyces cerevisiae ATCC9035; read-out: Antifungal activity (MIC)
Experimental: as §1

[4] = test system: C. albicans SL28; assay: MIC assay (CLSI M27-A3 microbroth); type: cell-based; settings: Candida albicans; C. albicans SL28; no visible growth; read-out: Antifungal activity (MIC)
Experimental: as §1

[5] = test system: Candida albicans KCTC7965; assay: MIC assay (CLSI M27-A3 microbroth); type: cell-based; settings: Candida albicans KCTC7965; no visible growth; read-out: Antifungal activity (MIC)
Experimental: as §1

[6] = test system: C. albicans SL38; assay: MIC assay (CLSI M27-A3 microbroth); type: cell-based; settings: Candida albicans; C. albicans SL38; no visible growth; read-out: Antifungal activity (MIC)
Experimental: as §1

[7] = in vivo; settings: male, SD, rat, iv, 0.5 mg/kg
[8] = test system: horse blood cells; type: cell-based; settings: 90% hemolysis against horse blood cells; ± percentage standard deviation
Experimental: as §1

[9] = 1 mg/kg dose
[10] = Single intravenous dose acute toxicity; type: in vivo, mice; settings: ICR, mouse, in vivo, single intravenous administration
Experimental: (§2) All in vivo mouse toxicity studies were conducted according to Testing Guidelines for Safety Evaluation of Drugs[32] and the Organisation for Economic Co-operation and Development (OECD) Guideline[33]. Male and female ICR mice were used 7 weeks old for the toxicity test. […] The single doses were 1, 2.5, and 5 mg per kg body weight.

[11] = test system: ICR mice; assay: Single intravenous dose acute toxicity; type: in vivo
Experimental: as §2

[12] = Microsomal (metabolic) stability; type: in vitro ADME; settings: human liver microsomes 1.0 mg/ml
Experimental: A metabolic stability experiment was conducted to calculate the rate of disappearance of polyene macrolides following in vitro incubation with human microsomes. Working solutions of polyene macrolides were prepared from a 10 mM stock solution in dimethyl sulfoxide (DMSO) diluted to a final concentration of 1 µM in 0.1 M potassium phosphate buffer (pH 7.4). Each incubation mixture included 1 mg/mL human microsomal protein (BD Gentest^TM, Franklin Lakes, NJ, USA) and 1 mM NADPH. The reactions were terminated at 0, 15, 45, and 80 min. The reaction mixtures were vigorously vortexed and then analyzed using the API2000 LC-MS/MS) system (Applied Biosystems, USA) using an Xterra MS C18 (3.5-µm, 2.1 × 50 mm, Waters).

[13] = test system: ergosterol-containing membranes; assay: Preliminary SPR experiments; type: binding; settings: ergosterol-containing membranes, unpublished data
[14] = 7-day repeated intravenous dose toxicity; type: in vivo, mice; settings: both sexes, ICR, mouse, in vivo; mice, 7-day repeated intravenous doses; read-out: MTD, maximal tolerated dose
Experimental: All in vivo mouse toxicity studies were conducted according to Testing Guidelines for Safety Evaluation of Drugs[32] and the Organisation for Economic Co-operation and Development (OECD) Guideline[33]. Male and female ICR mice were used 7 weeks old for the toxicity test. […]

## C[C@@H]1[C@H](O)[C@@H](C)/C=C/C=C/C=C/C=C/C=C/C=C/C=C/[C@H](O[C@@H]2O[C@H](C)[C@@H](O)[C@H](N)[C@@H]2O)C[C@@H]2O[C@](O)(C[C@@H](O)C[C@@H](O)[C@H](O)CC[C@@H](O)C[C@@H](O)CC(=O)O[C@H]1C)C[C@H](O)[C@H]2C(=O)O [Amphotericin B, amphotericin B]
[1]
  MIC: 0.5 µg/mL (≈ 0.541 µM)
[2]
  MIC: 1 µg/mL (≈ 1.08 µM)
[3]
  MIC: 1 µg/mL (≈ 1.08 µM)
[4]
  MIC: 1 µg/mL (≈ 1.08 µM)
[5]
  MIC: 1 µg/mL (≈ 1.08 µM)
[6]
  MIC: 1 µg/mL (≈ 1.08 µM)
[7]; in vivo
  half-life: 8.3 h
[7]; plasma
  AUC(0-inf): 1680 ng·h/mL
  AUC(0-t): 415 ng·h/mL
  MRT inf: 11.6 h
  Vd: 3.5 L/kg
  clearance: 5 mL/min/kg
[8]
  Hemolytic activity (MHC, minimum hemolytic concentration): 4.65 ± 0.17 µg/mL
[9]
  lethality in rats: killed all the tested rats
[10]; female mice, read-out: median lethal dose (LD50)
  LD50 at 7 days: 1.6 mg/kg
[10]; male mice, read-out: median lethal dose (LD50)
  LD50 at 7 days: 2.95 mg/kg
[10]; both sexes, mice, read-out: LD50, median lethal dose (dose causing 50% mortality)
  LD50 at 7 days: 2.3 mg/kg
[11]; female, single iv 1mg/kg, day 0
  Deaths on day after start of treatment: 0
[11]; female, single iv 1mg/kg, day 1
  Deaths on day after start of treatment: 0
[11]; female, single iv 1mg/kg, day 2
  Deaths on day after start of treatment: 1
[11]; female, single iv 1mg/kg, day 3
  Deaths on day after start of treatment: 0
[11]; female, single iv 1mg/kg, day 4
  Deaths on day after start of treatment: 0
[11]; female, single iv 1mg/kg, day 5
  Deaths on day after start of treatment: 0
[11]; female, single iv 1mg/kg, day 6
  Deaths on day after start of treatment: 0
[11]; female, single iv 1mg/kg, day 7
  Deaths on day after start of treatment: 0
[11]; female, single iv 2.5mg/kg, day 0
  Deaths on day after start of treatment: 0
[11]; female, single iv 2.5mg/kg, day 1
  Deaths on day after start of treatment: 1
[11]; female, single iv 2.5mg/kg, day 2
  Deaths on day after start of treatment: 3
[11]; female, single iv 2.5mg/kg, day 3
  Deaths on day after start of treatment: 0
[11]; female, single iv 2.5mg/kg, day 4
  Deaths on day after start of treatment: 0
[11]; female, single iv 2.5mg/kg, day 5
  Deaths on day after start of treatment: 0
[11]; female, single iv 2.5mg/kg, day 6
  Deaths on day after start of treatment: 1
[11]; female, single iv 2.5mg/kg, day 7
  Deaths on day after start of treatment: 0
[11]; female, single iv 5mg/kg, day 0
  Deaths on day after start of treatment: 4
[11]; female, single iv 5mg/kg, day 1
  Deaths on day after start of treatment: 0
[11]; female, single iv 5mg/kg, day 2
  Deaths on day after start of treatment: 1
[11]; female, single iv 5mg/kg, day 3
  Deaths on day after start of treatment: 0
[11]; female, single iv 5mg/kg, day 4
  Deaths on day after start of treatment: 0
[11]; female, single iv 5mg/kg, day 5
  Deaths on day after start of treatment: 0
[11]; female, single iv 5mg/kg, day 6
  Deaths on day after start of treatment: 0
[11]; female, single iv 5mg/kg, day 7
  Deaths on day after start of treatment: 0
[11]; male, single iv 1mg/kg, day 0
  Deaths on day after start of treatment: 0
[11]; male, single iv 1mg/kg, day 1
  Deaths on day after start of treatment: 0
[11]; male, single iv 1mg/kg, day 2
  Deaths on day after start of treatment: 0
[11]; male, single iv 1mg/kg, day 3
  Deaths on day after start of treatment: 0
[11]; male, single iv 1mg/kg, day 4
  Deaths on day after start of treatment: 0
[11]; male, single iv 1mg/kg, day 5
  Deaths on day after start of treatment: 0
[11]; male, single iv 1mg/kg, day 6
  Deaths on day after start of treatment: 0
[11]; male, single iv 1mg/kg, day 7
  Deaths on day after start of treatment: 0
[11]; male, single iv 2.5mg/kg, day 0
  Deaths on day after start of treatment: 0
[11]; male, single iv 2.5mg/kg, day 1
  Deaths on day after start of treatment: 0
[11]; male, single iv 2.5mg/kg, day 2
  Deaths on day after start of treatment: 2
[11]; male, single iv 2.5mg/kg, day 3
  Deaths on day after start of treatment: 0
[11]; male, single iv 2.5mg/kg, day 4
  Deaths on day after start of treatment: 0
[11]; male, single iv 2.5mg/kg, day 5
  Deaths on day after start of treatment: 0
[11]; male, single iv 2.5mg/kg, day 6
  Deaths on day after start of treatment: 0
[11]; male, single iv 2.5mg/kg, day 7
  Deaths on day after start of treatment: 0
[11]; male, single iv 5mg/kg, day 0
  Deaths on day after start of treatment: 5
[11]; male, single iv 5mg/kg, day 1
  Deaths on day after start of treatment: 0
[11]; male, single iv 5mg/kg, day 2
  Deaths on day after start of treatment: 0
[11]; male, single iv 5mg/kg, day 3
  Deaths on day after start of treatment: 0
[11]; male, single iv 5mg/kg, day 4
  Deaths on day after start of treatment: 0
[11]; male, single iv 5mg/kg, day 5
  Deaths on day after start of treatment: 0
[11]; male, single iv 5mg/kg, day 6
  Deaths on day after start of treatment: 0
[11]; male, single iv 5mg/kg, day 7
  Deaths on day after start of treatment: 0
[12]
  Clearance class: Low
[12]; pH 7.4
  half-life at 1 µM: > 1.33 h
  microsomal CLint at 1 µM: < 8600 µL/min/mg
[12]; pH 7.4, 1 µM, 80-min incubation
  remaining at 80 min, 1 µM: 101%
[13]
  affinity compared with NPP B1: higher affinity
[14]
  MTD at 7 days: 1.5 mg/kg
